# Source: US10738040B2, “Compounds, compositions, and methods for increasing CFTR activity” (Proteostasis Therapeutics, Inc., priority 2014, dated 2020)
# Marks after values point to notes of the source that are not given here.
# Legend:
# [1] = biological target: T1, ΔF508-CFTR (Homo sapiens, UniProt P13569, DEL508-508); assay: hBE equivalent current (Ieq) assay; assay type: cell-based; conditions: compound at 10 uM and VX-809 at 1 uM, relative to VX-809 (1 uM); primary lung epithelial cells homozygous for ΔF508, 24 hours treatment; AUC of equivalent chloride current
# T1 construct: Primary lung epithelial cells homozygous for the Cystic Fibrosis-causing ΔF508 mutation were differentiated; endogenous in cells; host or cells: primary human lung (bronchial) epithelial cells homozygous for ΔF508, differentiated at air-liquid interface
# Description: ii. hBE Equivalent Current (Ieq) Assay
# Primary lung epithelial cells homozygous for the Cystic Fibrosis-causing ΔF508 mutation were differentiated for a minimum of 4 weeks in an air-liquid interface on Costar 24 well HTS filter plates prior to the equivalent current (Ieq) measurements. Cells were apically mucus-washed for 30 minutes 24 h prior to treatment with compounds. The basolateral media was removed and replaced with media containing the compound of interest diluted to its final concentration from DMSO stocks. Treated cells were incubated at 37° C. and 5% CO2 for 24 hours. At the end of the treatment period, the media was changed to the Ieq experimental solution for 30 minutes before the experiment and plates are maintained in a CO2-free incubator during this period. The plates containing the cells were then placed in pre-warmed heating blocks at 36° ° C.±0.5 for 15 minutes before measurements are taken. The transepithelial voltage (VT) and conductance (GT) were measured using a custom 24 channel current clamp (TECC-24) with 24 well electrode manifold. The Ieq assay measurements were made following additions with standardized time periods: • 1. The baseline VT and GT values were measured for approximately 20 minutes. • 2. Benzamil was added to block ENaC for 15 minutes. • 3. Forskolin plus VX-770 (ivacaftor) were added to maximally activate ΔF508-CFTR for 27 minutes. • 4. Bumetanide was added to inhibit the NaK2Cl cotransporter and shut-off secretion of chloride.
# The activity data captured was the area under the curve (AUC) for the traces of the equivalent chloride current. The AUC was collected from the time of the forskolin/VX-770 addition until the inhibition by bumetanide addition. Correction in response to compound treatment was scored as the increase in the AUC for compound-treated samples over that of vehicle-treated samples.
# [2] = biological target: T1, ΔF508-CFTR; assay: Ussing measurements (short-circuit current, CFTRinh-172-inhibitable); assay type: cell-based; conditions: compound at 10 uM and VX-809 at 3 uM, relative to VX-809 (3 uM); hBEs homozygous for ΔF508, 24 hours treatment; CFTRinh-172-inhibitable current
# Description: As discussed above, Ussing measurements can be used to measure CFTR activity. In this method, primary lung epithelial cells (hBEs) homozygous for the Cystic Fibrosis-causing ΔF508 mutation were differentiated for a minimum of 4 weeks in an air-liquid interface on SnapWell filter plates prior to the Ussing measurements. Cells were apically mucus-washed for 30 minutes prior to treatment with compounds. The basolateral media was removed and replaced with media containing the compound of interest diluted to its final concentration from DMSO stocks. Treated cells were incubated at 37° C. and 5% CO2 for 24 hours. At the end of the treatment period, the cells on filters were transferred to the Ussing chamber and equilibrated for 30 minutes. The short-circuit current was measured in voltage clamp-mode (Vhold=0 mV), and the entire assay was conducted at a temperature of 36° C.-36.5° C. Once the voltages stabilized, the chambers were clamped, and data was recorded by pulse readings every 5 seconds. Following baseline current stabilization, the following additions were applied and the changes in current and resistance of the cells was monitored: • 1. Benzamil to the apical chamber to inhibit ENaC sodium channel. • 2. Forskolin to both chambers to activate ΔF508-CFTR by phosphorylation. • 3. Genistein to both chambers to potentiate ΔF508-CFTR channel opening. • 4. CFTRinh-172 to the apical chamber to inhibit ΔF508-CFTR Cl— conductance. The inhibitable current (that current that is blocked by CFTRinh-172) is measured as the specific activity of the ΔF508-CFTR channel, and increases in response to compound in this activity over that observed in vehicle-treated samples are identified as the correction of ΔF508-CFTR function imparted by the compound tested.
# T1 sequence (P13569 with tags, fused parts or gaps DEL508-508): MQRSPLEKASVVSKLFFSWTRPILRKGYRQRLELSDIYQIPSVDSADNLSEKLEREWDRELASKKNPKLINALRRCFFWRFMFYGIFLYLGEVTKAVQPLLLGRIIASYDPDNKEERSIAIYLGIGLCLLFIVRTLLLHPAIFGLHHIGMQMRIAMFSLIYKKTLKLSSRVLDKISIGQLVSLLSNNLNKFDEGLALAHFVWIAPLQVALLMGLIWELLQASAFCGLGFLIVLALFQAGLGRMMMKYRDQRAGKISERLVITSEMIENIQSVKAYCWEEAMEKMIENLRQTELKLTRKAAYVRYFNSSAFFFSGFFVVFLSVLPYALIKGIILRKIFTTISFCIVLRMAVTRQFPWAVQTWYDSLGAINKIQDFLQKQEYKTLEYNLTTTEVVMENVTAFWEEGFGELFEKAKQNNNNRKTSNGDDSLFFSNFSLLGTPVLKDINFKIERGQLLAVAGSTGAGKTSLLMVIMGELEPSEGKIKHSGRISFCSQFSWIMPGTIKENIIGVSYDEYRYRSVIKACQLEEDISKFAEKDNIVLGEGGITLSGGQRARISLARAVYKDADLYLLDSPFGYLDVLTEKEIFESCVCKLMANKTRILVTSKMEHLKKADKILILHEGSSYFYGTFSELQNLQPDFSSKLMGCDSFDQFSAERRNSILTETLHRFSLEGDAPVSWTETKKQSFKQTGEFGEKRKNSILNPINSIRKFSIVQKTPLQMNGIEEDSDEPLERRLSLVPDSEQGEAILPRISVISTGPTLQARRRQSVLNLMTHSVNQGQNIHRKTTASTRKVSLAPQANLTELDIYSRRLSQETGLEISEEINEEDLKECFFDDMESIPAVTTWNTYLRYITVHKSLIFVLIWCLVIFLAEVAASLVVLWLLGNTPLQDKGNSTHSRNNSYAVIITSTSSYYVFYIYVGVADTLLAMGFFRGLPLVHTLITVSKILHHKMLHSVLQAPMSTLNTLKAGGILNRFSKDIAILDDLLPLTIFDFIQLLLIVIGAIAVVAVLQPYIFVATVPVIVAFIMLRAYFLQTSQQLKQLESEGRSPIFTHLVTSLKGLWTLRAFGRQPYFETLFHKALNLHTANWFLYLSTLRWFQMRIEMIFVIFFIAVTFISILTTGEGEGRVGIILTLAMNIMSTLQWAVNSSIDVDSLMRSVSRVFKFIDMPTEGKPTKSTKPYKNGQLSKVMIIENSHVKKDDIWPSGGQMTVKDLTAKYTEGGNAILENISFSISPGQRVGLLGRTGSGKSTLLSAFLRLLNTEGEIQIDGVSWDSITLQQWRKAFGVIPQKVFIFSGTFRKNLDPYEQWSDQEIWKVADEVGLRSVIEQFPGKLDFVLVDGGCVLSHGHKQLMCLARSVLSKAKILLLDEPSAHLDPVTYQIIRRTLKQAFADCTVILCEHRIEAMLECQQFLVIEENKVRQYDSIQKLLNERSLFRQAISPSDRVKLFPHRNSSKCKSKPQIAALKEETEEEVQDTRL
SMILES,Ieq (% VX-809) [1],Ussing (% VX-809) [2]
O=C(N[C@H]1C[C@H](n2nncc2CO)C1)c1cc(-c2ccccc2)on1,++ *,## (activity ≥200% of VX-809 (3 uM) with compound at 10 uM and VX-809 at 3 uM)
C[C@H](O)c1cnnn1[C@H]1C[C@H](NC(=O)c2cc(-c3ccccc3)on2)C1,** (activity ≥200% of VX-809 (1 uM) with compound at 10 uM and VX-809 at 1 uM),# (activity 100-200% of VX-809 (3 uM) with compound at 10 uM and VX-809 at 3 uM)
C[C@@H](O)c1nnc(C2CC(NC(=O)c3cc(-c4ccccc4)on3)C2)o1 (stereo partly drawn),** (activity ≥200% of VX-809 (1 uM) with compound at 10 uM and VX-809 at 1 uM),## (activity ≥200% of VX-809 (3 uM) with compound at 10 uM and VX-809 at 3 uM)
C[C@H](O)c1nnc(C2CC(NC(=O)c3cc(-c4ccccc4)on3)C2)o1 (stereo partly drawn),** (activity ≥200% of VX-809 (1 uM) with compound at 10 uM and VX-809 at 1 uM),## (activity ≥200% of VX-809 (3 uM) with compound at 10 uM and VX-809 at 3 uM)
C[C@@H](O)c1nnc([C@H]2C[C@@H](NC(=O)c3cc(-c4ccccc4)on3)C2)o1,** (activity ≥200% of VX-809 (1 uM) with compound at 10 uM and VX-809 at 1 uM),## (activity ≥200% of VX-809 (3 uM) with compound at 10 uM and VX-809 at 3 uM)
C[C@H](O)c1nnc([C@H]2C[C@@H](NC(=O)c3cc(-c4ccccc4)on3)C2)o1,** (activity ≥200% of VX-809 (1 uM) with compound at 10 uM and VX-809 at 1 uM),## (activity ≥200% of VX-809 (3 uM) with compound at 10 uM and VX-809 at 3 uM)
